# Results: patent publication US20250084056A1, “SUBSTITUTED OXOISOINDOLINYL PIPERIDINE-2,6-DIONE COMPOUNDS” (BRISTOL-MYERS SQUIBB COMPANY, priority 2023, published 2025)
# Assays:
# Assay type in all cases: cell-based
# Cyclin E1 = Cyclin E1 (Homo sapiens, UniProt P24864+Q96SW2); test: Cyclin E1 Cellular Degradation Assay (MSD); design: endogenous in cells; host or cells: OVCAR3; conditions: for Ratio of GSPT1 DC50/Cyclin E1 DC50: selectivity for degradation of Cyclin E1 over GSPT1
# How it was run: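 Cyclin E1 remaining after 24 h compound exposure of OVCAR3 cells was quantified in lysates by electrochemiluminescent MSD sandwich assay. DC50 (50% response concentration) and Dmax (maximum response) were calculated, with 110% response set by a reference compound at […].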
# GSPT1 = GSPT1 (Homo sapiens, UniProt P15170+Q96SW2); test: GSPT1 Cellular Degradation Assay (DF15-GSPT1-ePL); design: expressed in transfected cells; conditions: DF15-GSPT1-ePL cells, 20 hours
# How it was run: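 DC50 and Dmax were derived from chemiluminescence, with 75% response set by the reference compound at […]. Readout was ePL enzyme-fragment complementation in a DF15 line expressing chimeric GSPT1. Cells were exposed to compound for 20 h at 37 °C in RPMI 1640 with 10% FBS, cooled 30 min, then lysed with substrate for 60 min.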
# Phospho-Rb (Ser807/811) = test: Phospho-Retinoblastoma (pRB) Cellular Assay; conditions: NIH OVCAR3 cells, 24 hours; for IC50: concentration giving 50% response; for Emax: read-out: pRB Ymax
# How it was run: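 Phospho-Rb (Ser807/811) kit read-out on EnVision after lysis (≥4 h, room temperature, dark) of OVCAR3 cells exposed to compound dilutions for 24 h. IC50 and maximum response Ymax are relative to a 10 μM reference compound defining 100%.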
# [1] = Cyclin E1 cellular degradation, maximum degradation
# [2] = Homo sapiens, OVCAR-3, maximum response, reference compound at 10 μM = 100%
# Chain of Cyclin E1 (P24864 whole entry): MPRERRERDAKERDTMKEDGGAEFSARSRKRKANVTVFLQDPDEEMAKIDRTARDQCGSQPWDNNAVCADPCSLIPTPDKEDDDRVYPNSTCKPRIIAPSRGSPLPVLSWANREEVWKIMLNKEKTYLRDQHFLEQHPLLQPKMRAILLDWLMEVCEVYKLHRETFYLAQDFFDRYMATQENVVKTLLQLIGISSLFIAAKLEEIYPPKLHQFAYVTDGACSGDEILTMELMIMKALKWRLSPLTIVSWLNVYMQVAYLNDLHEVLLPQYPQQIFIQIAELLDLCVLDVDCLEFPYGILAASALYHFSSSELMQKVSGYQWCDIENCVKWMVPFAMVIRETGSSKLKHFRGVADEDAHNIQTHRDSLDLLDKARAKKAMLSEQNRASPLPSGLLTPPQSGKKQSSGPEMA
# Chain of Cyclin E1 (Q96SW2 whole entry): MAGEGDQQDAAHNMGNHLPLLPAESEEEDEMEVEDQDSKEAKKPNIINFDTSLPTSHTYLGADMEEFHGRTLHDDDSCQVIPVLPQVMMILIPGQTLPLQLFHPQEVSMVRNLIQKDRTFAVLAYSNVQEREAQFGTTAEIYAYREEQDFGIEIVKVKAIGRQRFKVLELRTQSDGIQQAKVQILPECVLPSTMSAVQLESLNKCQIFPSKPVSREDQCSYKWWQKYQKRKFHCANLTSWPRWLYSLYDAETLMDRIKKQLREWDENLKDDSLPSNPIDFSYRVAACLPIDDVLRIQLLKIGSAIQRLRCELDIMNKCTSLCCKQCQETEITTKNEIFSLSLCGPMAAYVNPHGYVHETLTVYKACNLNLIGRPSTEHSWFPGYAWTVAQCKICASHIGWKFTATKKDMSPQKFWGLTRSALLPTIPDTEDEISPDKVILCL
# Chain of Cyclin E1 (Q16531 whole entry partner): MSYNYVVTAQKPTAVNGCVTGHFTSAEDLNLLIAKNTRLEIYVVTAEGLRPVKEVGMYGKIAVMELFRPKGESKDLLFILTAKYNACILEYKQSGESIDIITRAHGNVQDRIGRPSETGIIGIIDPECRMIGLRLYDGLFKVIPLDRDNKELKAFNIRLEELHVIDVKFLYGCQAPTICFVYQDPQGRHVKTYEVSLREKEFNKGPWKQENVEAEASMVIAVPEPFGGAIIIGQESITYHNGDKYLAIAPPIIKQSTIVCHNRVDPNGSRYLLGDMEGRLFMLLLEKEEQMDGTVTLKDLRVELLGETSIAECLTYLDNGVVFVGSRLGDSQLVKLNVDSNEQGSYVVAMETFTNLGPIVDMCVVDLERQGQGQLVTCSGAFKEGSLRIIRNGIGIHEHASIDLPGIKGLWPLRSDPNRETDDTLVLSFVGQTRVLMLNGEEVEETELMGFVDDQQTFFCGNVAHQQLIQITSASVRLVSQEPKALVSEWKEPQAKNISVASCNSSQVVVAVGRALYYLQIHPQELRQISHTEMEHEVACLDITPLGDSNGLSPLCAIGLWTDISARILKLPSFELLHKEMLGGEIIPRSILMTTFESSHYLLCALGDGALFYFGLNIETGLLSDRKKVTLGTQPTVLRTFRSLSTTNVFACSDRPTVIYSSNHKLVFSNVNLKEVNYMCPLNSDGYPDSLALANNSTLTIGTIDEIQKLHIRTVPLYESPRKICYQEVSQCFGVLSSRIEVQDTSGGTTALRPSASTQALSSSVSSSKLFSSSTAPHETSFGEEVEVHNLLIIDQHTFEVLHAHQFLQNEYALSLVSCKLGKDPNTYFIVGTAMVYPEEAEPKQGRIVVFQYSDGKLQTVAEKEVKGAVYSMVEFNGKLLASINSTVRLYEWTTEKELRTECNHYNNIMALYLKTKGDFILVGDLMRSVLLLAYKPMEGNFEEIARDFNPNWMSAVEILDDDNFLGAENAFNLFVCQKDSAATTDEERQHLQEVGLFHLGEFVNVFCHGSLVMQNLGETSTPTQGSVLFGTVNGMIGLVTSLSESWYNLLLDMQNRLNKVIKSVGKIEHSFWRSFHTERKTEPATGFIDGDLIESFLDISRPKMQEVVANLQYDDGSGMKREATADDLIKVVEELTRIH
# Chain of GSPT1 (P15170 whole entry, the tested form may be a part): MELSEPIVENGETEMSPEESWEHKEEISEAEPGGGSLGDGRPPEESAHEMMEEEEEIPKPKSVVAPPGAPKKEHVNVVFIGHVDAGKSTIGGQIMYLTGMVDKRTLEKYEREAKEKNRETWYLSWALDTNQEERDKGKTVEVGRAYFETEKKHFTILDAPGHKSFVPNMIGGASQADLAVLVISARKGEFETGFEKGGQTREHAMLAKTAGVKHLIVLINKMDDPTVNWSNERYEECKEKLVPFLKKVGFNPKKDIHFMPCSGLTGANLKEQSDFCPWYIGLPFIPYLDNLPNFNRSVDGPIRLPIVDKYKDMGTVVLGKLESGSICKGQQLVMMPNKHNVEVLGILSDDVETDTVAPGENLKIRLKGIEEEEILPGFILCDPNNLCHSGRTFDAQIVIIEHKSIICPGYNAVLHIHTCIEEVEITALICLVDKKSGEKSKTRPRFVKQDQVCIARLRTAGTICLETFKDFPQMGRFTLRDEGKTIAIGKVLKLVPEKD
# Chain of GSPT1 (Q96SW2 whole entry, the tested form may be a part): as the sequence (Q96SW2 whole entry) above
# Chain of GSPT1 (Q16531 whole entry partner, the tested form may be a part): as the sequence (Q16531 whole entry partner) above
compound,measurement,setting,value
"[2H]C([2H])([2H])c1ccccc1Oc1ccc(NC(=O)OCc2ccc3c(c2OC)C(=O)N(C2CCC(=O)NC2=O)C3)cc1 (centres unmarked) [Example 92, [2-(2,6-dioxopiperidin-3-yl)-4-methoxy-3-oxo-2,3-dihydro-1H-isoindol-5-yl]methyl N-{4-[2-(^2H3)methylphenoxy]phenyl}carbamate]",Cyclin E1 Dmax,Cyclin E1; [1],114%
same,Ratio of GSPT1 DC50/Cyclin E1 DC50,Cyclin E1,>82
same,GSPT1 Dmax,GSPT1,23%
same,pRB Ymax,"Phospho-Rb (Ser807/811); maximum response, reference compound at 10 μM = 100%",112%
"COc1c(COC(=O)Nc2ccc(Oc3cccc4ccccc34)cc2)ccc2c1C(=O)N(C1CCC(=O)NC1=O)C2 (centres unmarked) [Example 113, [2-(2,6-dioxopiperidin-3-yl)-4-methoxy-3-oxo-2,3-dihydro-1H-isoindol-5-yl]methyl N-[4-(naphthalen-1-yloxy)phenyl]carbamate]",DC50,Cyclin E1; Cyclin E1 cellular degradation,190 nM
same,Dmax,Cyclin E1; [1],113%
same,Ratio of GSPT1 DC50/Cyclin E1 DC50,Cyclin E1,>74
same,DC50,GSPT1,> 14000 nM
same,Dmax,GSPT1,37%
same,IC50,"Phospho-Rb (Ser807/811); Homo sapiens, OVCAR-3",99 nM
same,Emax,Phospho-Rb (Ser807/811); [2],93%
"COc1c(COC(=O)Nc2ccc(Oc3ccccc3C(F)(F)F)cc2Cl)ccc2c1C(=O)N(C1CCC(=O)NC1=O)C2 (centres unmarked) [Example 90, [2-(2,6-dioxopiperidin-3-yl)-4-methoxy-3-oxo-2,3-dihydro-1H-isoindol-5-yl]methyl N-{2-chloro-4-[2-(trifluoromethyl)phenoxy]phenyl}carbamate]",DC50,Cyclin E1; Cyclin E1 cellular degradation,200 nM
same,Dmax,Cyclin E1; [1],100%
same,Ratio of GSPT1 DC50/Cyclin E1 DC50,Cyclin E1,>70
same,DC50,GSPT1,> 14000 nM
same,Dmax,GSPT1,10%
same,IC50,"Phospho-Rb (Ser807/811); Homo sapiens, OVCAR-3",479 nM
same,Emax,Phospho-Rb (Ser807/811); [2],103%
"COc1c(COC(=O)Nc2ccc(Oc3ccccc3)cc2)ccc2c1C(=O)N(C1CCC(=O)NC1=O)C2 (centres unmarked) [Example 2, [2-(2,6-dioxopiperidin-3-yl)-4-methoxy-3-oxo-2,3-dihydro-1H-isoindol-5-yl]methyl N-(4-phenoxyphenyl)carbamate]",DC50,Cyclin E1; Cyclin E1 cellular degradation,78 nM
same,Dmax,Cyclin E1; [1],108%
same,Ratio of GSPT1 DC50/Cyclin E1 DC50,Cyclin E1,>180
same,DC50,GSPT1,> 14000 nM
same,Dmax,GSPT1,32%
same,IC50,"Phospho-Rb (Ser807/811); Homo sapiens, OVCAR-3",83 nM
same,Emax,Phospho-Rb (Ser807/811); [2],123%
"COc1c(COC(=O)Nc2ccc(Oc3ccccc3C)cc2)ccc2c1C(=O)N(C1CCC(=O)NC1=O)C2 (centres unmarked) [Example 92, [2-(2,6-dioxopiperidin-3-yl)-4-methoxy-3-oxo-2,3-dihydro-1H-isoindol-5-yl]methyl N-{4-[2-(^2H3)methylphenoxy]phenyl}carbamate]",DC50,Cyclin E1; Cyclin E1 cellular degradation,170 nM
same,DC50,GSPT1,> 14000 nM
same,IC50,Phospho-Rb (Ser807/811),34 nM
"O=C1CCC(N2Cc3ccc(COC(=O)Nc4ccc(Oc5ccccc5)cc4)c(OC4CCOCC4)c3C2=O)C(=O)N1 (centres unmarked) [Example 134, [2-(2,6-dioxopiperidin-3-yl)-4-(oxan-4-yloxy)-3-oxo-2,3-dihydro-1H-isoindol-5-yl]methyl N-(4-phenoxyphenyl)carbamate]",DC50,Cyclin E1; Cyclin E1 cellular degradation,13 nM
same,Dmax,Cyclin E1; [1],107%
same,Ratio of GSPT1 DC50/Cyclin E1 DC50,Cyclin E1,">1,066"
same,DC50,GSPT1,> 14000 nM
same,Dmax,GSPT1,0%
same,IC50,"Phospho-Rb (Ser807/811); Homo sapiens, OVCAR-3",14 nM
same,Emax,Phospho-Rb (Ser807/811); [2],144%
"COc1c(COC(=O)Nc2ccc(C3(c4ccccc4)CC3)cc2)ccc2c1C(=O)N(C1CCC(=O)NC1=O)C2 (centres unmarked) [Example 7, [2-(2,6-dioxopiperidin-3-yl)-4-methoxy-3-oxo-2,3-dihydro-1H-isoindol-5-yl]methyl N-[4-(1-phenylcyclopropyl)phenyl]carbamate]",DC50,Cyclin E1; Cyclin E1 cellular degradation,203 nM
same,Dmax,Cyclin E1; [1],90%
same,Ratio of GSPT1 DC50/Cyclin E1 DC50,Cyclin E1,>69
same,DC50,GSPT1,> 14000 nM
same,Dmax,GSPT1,21%
same,IC50,"Phospho-Rb (Ser807/811); Homo sapiens, OVCAR-3",1780 nM
same,Emax,Phospho-Rb (Ser807/811); [2],10%
"COc1cc(Oc2ccc(F)c(F)c2)ccc1NC(=O)OCc1ccc2c(c1OC)C(=O)N(C1CCC(=O)NC1=O)C2 (centres unmarked) [Example 47, [2-(2,6-dioxopiperidin-3-yl)-4-methoxy-3-oxo-2,3-dihydro-1H-isoindol-5-yl]methyl N-[4-(3,4-difluorophenoxy)-2-methoxyphenyl]carbamate]",DC50,Cyclin E1; Cyclin E1 cellular degradation,320 nM
same,Dmax,Cyclin E1; [1],101%
same,Ratio of GSPT1 DC50/Cyclin E1 DC50,Cyclin E1,>44
same,DC50,GSPT1,> 14000 nM
same,Dmax,GSPT1,20%
same,IC50,"Phospho-Rb (Ser807/811); Homo sapiens, OVCAR-3",361 nM
same,Emax,Phospho-Rb (Ser807/811); [2],107%
"COc1c(COC(=O)Nc2ccc(Oc3ccc(F)cc3C)cc2C)ccc2c1C(=O)N(C1CCC(=O)NC1=O)C2 (centres unmarked) [Example 76, [2-(2,6-dioxopiperidin-3-yl)-4-methoxy-3-oxo-2,3-dihydro-1H-isoindol-5-yl]methyl N-[4-(4-fluoro-2-methylphenoxy)-2-methylphenyl]carbamate]",DC50,Cyclin E1; Cyclin E1 cellular degradation,267 nM
same,Dmax,Cyclin E1; [1],111%
same,Ratio of GSPT1 DC50/Cyclin E1 DC50,Cyclin E1,>52
same,DC50,GSPT1,> 14000 nM
same,Dmax,GSPT1,33%
same,IC50,"Phospho-Rb (Ser807/811); Homo sapiens, OVCAR-3",104 nM
same,Emax,Phospho-Rb (Ser807/811); [2],122%
"COc1c(COC(=O)Nc2ccc(Oc3ccccc3C)cc2)ccc2c1C(=O)N(C1CCC(=O)NC1=O)C2 (centres unmarked) [Example 101, [2-(2,6-dioxopiperidin-3-yl)-4-methoxy-3-oxo-2,3-dihydro-1H-isoindol-5-yl]methyl N-[4-(2-methylphenoxy)phenyl]carbamate]",DC50,Cyclin E1; Cyclin E1 cellular degradation,72 nM
same,Dmax,Cyclin E1; [1],108%
same,Ratio of GSPT1 DC50/Cyclin E1 DC50,Cyclin E1,>194
same,DC50,GSPT1,> 14000 nM
same,Dmax,GSPT1,18%
same,IC50,"Phospho-Rb (Ser807/811); Homo sapiens, OVCAR-3",61 nM
same,Emax,Phospho-Rb (Ser807/811); [2],111%
"COc1c(COC(=O)Nc2ccc(Oc3ccccc3C3CC3)cc2)ccc2c1C(=O)N(C1CCC(=O)NC1=O)C2 (centres unmarked) [Example 87, [2-(2,6-dioxopiperidin-3-yl)-4-methoxy-3-oxo-2,3-dihydro-1H-isoindol-5-yl]methyl N-[4-(2-cyclopropylphenoxy)phenyl]carbamate]",DC50,Cyclin E1; Cyclin E1 cellular degradation,414 nM
same,Dmax,Cyclin E1; [1],100%
same,Ratio of GSPT1 DC50/Cyclin E1 DC50,Cyclin E1,>34
same,DC50,GSPT1,> 14000 nM
same,Dmax,GSPT1,39%
same,IC50,"Phospho-Rb (Ser807/811); Homo sapiens, OVCAR-3",272 nM
same,Emax,Phospho-Rb (Ser807/811); [2],98%
"O=C1CCC(N2Cc3ccc(COC(=O)Nc4ccc(Oc5ccc(F)c(F)c5)cc4)c(O[C@@H]4CCCOC4)c3C2=O)C(=O)N1 (stereo partly drawn) [Example 141, [2-(2,6-dioxopiperidin-3-yl)-4-[(3R)-oxan-3-yloxy]-3-oxo-2,3-dihydro-1H-isoindol-5-yl]methyl N-[4-(3,4-difluorophenoxy)phenyl]carbamate]",DC50,Cyclin E1; Cyclin E1 cellular degradation,34 nM
same,Dmax,Cyclin E1; [1],112%
same,Ratio of GSPT1 DC50/Cyclin E1 DC50,Cyclin E1,>418
same,DC50,GSPT1,> 14000 nM
same,Dmax,GSPT1,9%
same,IC50,"Phospho-Rb (Ser807/811); Homo sapiens, OVCAR-3",55 nM
same,Emax,Phospho-Rb (Ser807/811); [2],136%
"O=C1CCC(N2Cc3ccc(COC(=O)Nc4ccc(Oc5ccccc5)cc4)c(OC(F)F)c3C2=O)C(=O)N1 (centres unmarked) [Example 60, [4-(difluoromethoxy)-2-(2,6-dioxopiperidin-3-yl)-3-oxo-2,3-dihydro-1H-isoindol-5-yl]methyl N-(4-phenoxyphenyl)carbamate]",DC50,Cyclin E1; Cyclin E1 cellular degradation,184 nM
same,Dmax,Cyclin E1; [1],104%
same,Ratio of GSPT1 DC50/Cyclin E1 DC50,Cyclin E1,>76
same,DC50,GSPT1,> 14000 nM
same,Dmax,GSPT1,19%
same,IC50,"Phospho-Rb (Ser807/811); Homo sapiens, OVCAR-3",503 nM
same,Emax,Phospho-Rb (Ser807/811); [2],109%
"CC(C)(O)COc1c(COC(=O)Nc2ccc(Oc3ccc(F)c(F)c3)cc2)ccc2c1C(=O)N(C1CCC(=O)NC1=O)C2 (centres unmarked) [Example 159, [2-(2,6-dioxopiperidin-3-yl)-4-(2-hydroxy-2-methylpropoxy)-3-oxo-2,3-dihydro-1H-isoindol-5-yl]methyl N-[4-(3,4-difluorophenoxy)phenyl]carbamate]",DC50,Cyclin E1; Cyclin E1 cellular degradation,15 nM
same,Dmax,Cyclin E1; [1],101%
same,Ratio of GSPT1 DC50/Cyclin E1 DC50,Cyclin E1,>937
same,DC50,GSPT1,> 14000 nM
same,Dmax,GSPT1,21%
same,IC50,"Phospho-Rb (Ser807/811); Homo sapiens, OVCAR-3",47 nM
same,Emax,Phospho-Rb (Ser807/811); [2],145%
"O=C1CCC(N2Cc3ccc(COC(=O)Nc4ccc(Oc5ccc(F)c(F)c5)cc4)c(OC4CCOCC4)c3C2=O)C(=O)N1 (centres unmarked) [Example 130, [2-(2,6-dioxopiperidin-3-yl)-4-(oxan-4-yloxy)-3-oxo-2,3-dihydro-1H-isoindol-5-yl]methyl N-[4-(3,4-difluorophenoxy)phenyl]carbamate]",DC50,Cyclin E1; Cyclin E1 cellular degradation,19 nM
same,Dmax,Cyclin E1; [1],106%
same,Ratio of GSPT1 DC50/Cyclin E1 DC50,Cyclin E1,>738
same,DC50,GSPT1,> 14000 nM
same,Dmax,GSPT1,19%
same,IC50,"Phospho-Rb (Ser807/811); Homo sapiens, OVCAR-3",22 nM
same,Emax,Phospho-Rb (Ser807/811); [2],119%
